# Measurements from patent US20100029657A1, “Bridged, Bicyclic Heterocyclic or Spiro Bicyclic Heterocyclic Derivatives of Pyrazolo[1, 5-A]Pyrimidines, Methods for Preparation and Uses Thereof” (Wyeth, priority 2008, published 2010).
# Structures can show the parent of a compound that is named as a salt.
# Molecular target: T1, Flag/GST-tagged recombinant human B-Raf (Homo sapiens, UniProt P15056)
# T1 construct: Flag; GST; made in house; host or cells: Sf9 insect cells (B-Raf); E. coli (MEK1-GST)
# T1 sequence (P15056 whole entry): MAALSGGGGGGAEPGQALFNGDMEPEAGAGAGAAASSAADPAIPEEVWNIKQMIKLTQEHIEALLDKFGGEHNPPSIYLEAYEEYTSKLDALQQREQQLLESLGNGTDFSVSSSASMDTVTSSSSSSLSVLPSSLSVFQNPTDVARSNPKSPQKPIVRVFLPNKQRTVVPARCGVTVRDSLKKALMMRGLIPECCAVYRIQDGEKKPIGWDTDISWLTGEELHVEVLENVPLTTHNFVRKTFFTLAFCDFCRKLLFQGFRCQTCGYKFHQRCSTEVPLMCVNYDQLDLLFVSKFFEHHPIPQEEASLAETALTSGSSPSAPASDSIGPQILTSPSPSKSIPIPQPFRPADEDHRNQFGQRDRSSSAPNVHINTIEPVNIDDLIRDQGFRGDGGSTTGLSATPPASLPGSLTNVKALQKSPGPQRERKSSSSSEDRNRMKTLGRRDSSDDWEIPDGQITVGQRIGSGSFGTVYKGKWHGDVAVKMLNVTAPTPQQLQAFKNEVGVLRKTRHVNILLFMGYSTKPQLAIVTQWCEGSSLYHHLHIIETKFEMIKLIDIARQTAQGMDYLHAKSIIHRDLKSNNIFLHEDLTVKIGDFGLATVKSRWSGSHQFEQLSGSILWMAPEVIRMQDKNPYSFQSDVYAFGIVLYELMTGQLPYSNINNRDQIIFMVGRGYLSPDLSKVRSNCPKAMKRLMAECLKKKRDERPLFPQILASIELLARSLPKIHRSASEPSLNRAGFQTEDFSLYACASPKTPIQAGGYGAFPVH
# Experiment: B-Raf kinase assay (phosphorylation of GST-MEK1, phospho-MEK1 antibody/Europium detection)
# Format: biochemical
# Details: B-Raf IC50 Data for compounds of Formula A; read-out: Mean IC50
# How it was run: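 Percent inhibition was calculated at each compound concentration from Europium time-resolved fluorescence (anti-phospho-MEK1, then Eu-conjugated anti-rabbit) after GST capture. The upstream kinase step used GST-MEK1 with 0.2 nM B-Raf for 45 min at room temperature in MOPS buffer, pH 7.2. It was started with a cocktail of 200 μM ATP and 40 mM MgCl2.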
row,IC50,Compound
1,> 0.1 µM,"COc1cc(-c2c(-c3ccncc3)nn3c(CN4C[C@@H]5C[C@H]4CN5C(=O)OC(C)(C)C)ccnc23)ccc1Cl [Example 121, tert-butyl (1S,4S)-5-{[3-(4-chloro-3-methoxyphenyl)-2-pyridin-4-ylpyrazolo[1,5-a]pyrimidin-7-yl]methyl}-2,5-diazabicyclo[2.2.1]heptane-2-carboxylate]"
2,0.002 µM,"CS(=O)(=O)N1C2CCC1CC(c1ccnc3c(-c4ccc(Cl)c(O)c4)c(-c4ccncc4)nn13)C2 (stereo not shown) [Example 14, 2-Chloro-5-{7-[8-(methylsulfonyl)-8-azabicyclo[3.2.1]oct-3-yl]-2-pyridin-4-ylpyrazolo[1,5-a]pyrimidin-3-yl}phenol]"
3,0.004 µM,"CCN1C2CCC1CC(c1ccnc3c(-c4ccc(Cl)c5[nH]ncc45)c(-c4ccncc4)nn13)C2 (stereo not shown) [Example 79, 3-(7-Chloro-1H-indazol-4-yl)-7-(8-ethyl-8-azabicyclo[3.2.1]oct-3-yl)-2-pyridin-4-ylpyrazolo[1,5-a]pyrimidin, trifluoroacetate salt]"
4,0.0744 µM,"Fc1cc(F)c(-c2ccnc3c(-c4cccc5[nH]ncc45)c(-c4ccncc4)nn23)c(N2C[C@@H]3C[C@H]2CN3)c1 [Example 145, 7-{2-[(1S,4S)-2,5-diazabicyclo[2.2.1]hept-2-yl]-4,6-difluorophenyl}-3-(1H-indazol-4-yl)-2-pyridin-4-ylpyrazolo[1,5-a]pyrimidine]"
5,0.0067 µM,"Fc1ccc(-c2c(-c3ccncc3)nn3c2nccc3[C@H]2CC[C@H](N3C[C@@H]4C[C@H]3CO4)CC2)c2cn[nH]c12 [Example 178, 3-(7-fluoro-1H-indazol-4-yl)-7-{trans-4-[(1S,4S)-2-oxa-5-azabicyclo[2.2.1]hept-5-yl]cyclohexyl}-2-pyridin-4-ylpyrazolo[1,5-a]pyrimidine]"
6,0.0018 µM,"Fc1ccc(-c2c(-c3ccncc3)nn3c2nccc3[C@H]2CC[C@H](N3CC4CCC(C3)O4)CC2)c2cn[nH]c12 (relative stereo) [Example 180, 3-(7-fluoro-1H-indazol-4-yl)-7-[trans-4-(8-oxa-3-azabicyclo[3.2.1]oct-3-yl)cyclohexyl]-2-pyridin-4-ylpyrazolo[1,5-a]pyrimidine]"
7,0.0003 µM,"Fc1cc(N2C[C@@H]3CC[C@H]2CN3)ccc1-c1ccnc2c(-c3cccc4[nH]ncc34)c(-c3ccncc3)nn12 [Example 172, 7-{4-[(1S,4S)-2,5-diazabicyclo[2.2.2]oct-2-yl]-2-fluorophenyl}-3-(1H-indazol-4-yl)-2-pyridin-4-ylpyrazolo[1,5-a]pyrimidine]"
8,< 0.0003 µM,"Fc1ccc(-c2c(-c3ccncc3)nn3c(-c4ccc(N5C[C@@H]6C[C@H]5CN6)cc4)ccnc23)c2cn[nH]c12 [Example 103, 7-[4-(2,5-Diaza-bicyclo[2.2.1]hept-2-yl)-phenyl]-3-(7-fluoro-1H-indazol-4-yl)-2-pyridin-4-yl-pyrazolo[1,5-a]pyrimidine]"
9,< 0.0003 µM,"Cc1cc(N2C[C@@H]3C[C@H]2CN3C)ccc1-c1ccnc2c(-c3cccc4[nH]ncc34)c(-c3ccncc3)nn12 [Example 45, 3-(1H-Indazol-4-yl)-7-(2-methyl-4-((1S,4S)-5-methyl-2,5-diazabicyclo[2.2.1]heptan-2-yl)phenyl)-2-(pyridin-4-yl)pyrazolo[1,5-a]pyrimidine]"
10,0.0021 µM,"Fc1ccc(-c2c(-c3ccncc3)nn3c2nccc3[C@H]2CC[C@@H](N3C4CCC3COC4)CC2)c2cn[nH]c12 (relative stereo) [Example 181, 3-(7-fluoro-1H-indazol-4-yl)-7-[cis-4-(3-oxa-8-azabicyclo[3.2.1]oct-8-yl)cyclohexyl]-2-pyridin-4-ylpyrazolo[1,5-a]pyrimidine]"
11,0.835 µM,"CCN1C2CCC1CC(c1ccnc3c(-c4ccnc(OC)c4)c(-c4ccncc4)nn13)C2 (stereo not shown) [Example 20, 7-(8-Ethyl-8-azabicyclo[3.2.1]octan-3-yl)-3-(2-methoxypyridin-4-yl)-2-(pyridin-4-yl)pyrazolo[1,5-a]pyrimidine]"
12,> 1 µM,"COc1cc(-c2c(-c3ccncc3)nn3c(-c4ccc(F)cc4N4C[C@@H]5C[C@H]4CN5C)ccnc23)ccc1Cl [Example 50, 3-(4-Chloro-3-methoxyphenyl)-7-(4-fluoro-2-((1S,4S)-5-methyl-2,5-diazabicyclo[2.2.1]heptan-2-yl)phenyl)-2-(pyridin-4-yl)pyrazolo[1,5-a]pyrimidine]"
13,< 0.0003 µM,"CN1C[C@@H]2C[C@H]1CN2c1ccc(-c2ccnc3c(-c4ccc(Cl)c5[nH]ncc45)c(-c4ccncc4)nn23)cn1 [Example 41, 3-(7-Chloro-1H-indazol-4-yl)-7-(6-((1S,4S)-5-methyl-2,5-diazabicyclo[2.2.1]heptan-2-yl)pyridin-3-yl)-2-(pyridin-4-yl)pyrazolo[1,5-a]pyrimidine]"
14,0.0115 µM,"CC(C)(C)OC(=O)N1C[C@@H]2C[C@H]1CN2Cc1ccc(-c2ccnc3c(-c4cccc5[nH]ncc45)c(-c4ccncc4)nn23)s1 [Example 196, tert-butyl (1S,4S)-5-({5-[3-(1H-indazol-4-yl)-2-pyridin-4-ylpyrazolo[1,5-a]pyrimidin-7-yl]thiophen-2-yl}methyl)-2,5-diazabicyclo[2.2.1]heptane-2-carboxylate]"
15,0.0004 µM,"CN1C[C@@H]2C[C@H]1CN2c1cc(F)c(-c2ccnc3c(-c4cccc5[nH]ncc45)c(-c4ccncc4)nn23)cc1F [Example 166, 7-{2,5-difluoro-4-[(1S,4S)-5-methyl-2,5-diazabicyclo[2.2.1]hept-2-yl]phenyl}-3-(1H-indazol-4-yl)-2-pyridin-4-ylpyrazolo[1,5-a]pyrimidine]"
16,0.0209 µM,"c1cc(-c2c(-c3ccncc3)nn3c(-c4ccc(N5C[C@@H]6C[C@H]5CN6)c5ccccc45)ccnc23)c2cn[nH]c2c1 [Example 158, 7-{4-[(1S,4S)-2,5-diazabicyclo[2.2.1]hept-2-yl]-1-naphthyl}-3-(1H-indazol-4-yl)-2-pyridin-4-ylpyrazolo[1,5-a]pyrimidine]"
17,0.0096 µM,"CN1C[C@@H]2C[C@H]1CN2c1c(F)cc(-c2ccnc3c(-c4cccc5[nH]ncc45)c(-c4ccncc4)nn23)cc1F [Example 164, 7-{3,5-difluoro-4-[(1S,4S)-5-methyl-2,5-diazabicyclo[2.2.1]hept-2-yl]phenyl}-3-(1H-indazol-4-yl)-2-pyridin-4-ylpyrazolo[1,5-a]pyrimidine]"
18,0.0014 µM,"CN1C[C@@H]2C[C@H]1CN2c1ccc(-c2ccnc3c(-c4cccc5[nH]ncc45)c(-c4ccncc4)nn23)c(C(F)(F)F)c1 [Example 189, 3-(1H-indazol-4-yl)-7-{4-[(1S,4S)-5-methyl-2,5-diazabicyclo[2.2.1]hept-2-yl]-2-(trifluoromethyl)phenyl}-2-pyridin-4-ylpyrazolo[1,5-a]pyrimidine]"
19,0.162 µM,"CCOC(=O)N1C2CCC1CC(c1ccnc3c(-c4cccc(-c5nnco5)c4)c(-c4ccncc4)nn13)C2 (stereo not shown) [Example 91, Ethyl 3-(3-(3-(1,3,4-oxadiazol-2-yl)phenyl)-2-(pyridin-4-yl)pyrazolo[1,5-a]pyrimidin-7-yl)-8-azabicyclo[3.2.1]octane-8-carboxylate]"
20,< 0.0003 µM,"Fc1cc(N2C[C@@H]3C[C@H]2CN3)ccc1-c1ccnc2c(-c3cccc4[nH]ncc34)c(-c3ccncc3)nn12 [Example 93, 7-{4-[(1S,4S)-2,5-diazabicyclo[2.2.1]hept-2-yl]-2-fluorophenyl}-3-(1H-indazol-4-yl)-2-pyridin-4-ylpyrazolo[1,5-a]pyrimidine]"
21,0.036 µM,"CCOC(=O)N1C2CCC1CC(c1ccnc3c(-c4ccc5cc[nH]c5c4)c(-c4ccncc4)nn13)C2 (stereo not shown) [Example 85, Ethyl 3-[3-(1H-indol-6-yl)-2-pyridin-4-ylpyrazolo[1,5-a]pyrimidin-7-yl]-8-azabicyclo[3.2.1]octane-8-carboxylate]"
22,0.0006 µM,"c1cc(-c2c(-c3ccncc3)nn3c(-c4ccc(CN5C[C@@H]6C[C@H]5CN6)cc4)ccnc23)c2cn[nH]c2c1 [Example 209, 7-{4-[(1S,4S)-2,5-diazabicyclo[2.2.1]hept-2-ylmethyl]phenyl}-3-(1H-indazol-4-yl)-2-pyridin-4-ylpyrazolo[1,5-a]pyrimidine]"
23,0.0004 µM,"CN1C[C@@H]2CC[C@H]1CN2c1ccc(-c2ccnc3c(-c4cccc5[nH]ncc45)c(-c4ccncc4)nn23)c(F)c1 [Example 173, 7-{2-fluoro-4-[(1S,4S)-5-methyl-2,5-diazabicyclo[2.2.2]oct-2-yl]phenyl}-3-(1H-indazol-4-yl)-2-pyridin-4-ylpyrazolo[1,5-a]pyrimidine]"

row,Compound,IC50
1,"Oc1cccc(-c2c(-c3ccncc3)nn3c(-c4ccc(N[C@H]5CN6CCC5CC6)nc4)ccnc23)c1 [Example 3, 3-(7-{6-[(3R)-1-Azabicyclo[2.2.2]oct-3-ylamino]pyridin-3-yl}-2-pyridin-4-ylpyrazolo[1,5-a]pyrimidin-3-yl)phenol]",0.001 µM
2,"CC(=O)CN1C2CCC1CC(c1ccnc3c(-c4cccc5[nH]ncc45)c(-c4ccncc4)nn13)C2 (stereo not shown) [Example 130, 1-{3-[3-(1H-indazol-4-yl)-2-pyridin-4-ylpyrazolo[1,5-a]pyrimidin-7-yl]-8-azabicyclo[3.2.1]oct-8-yl}propan-2-one]",0.0759 µM
3,"CCN1C2CCC1CC(c1ccnc3c(-c4ccc(C#N)c(O)c4)c(-c4ccncc4)nn13)C2 (stereo not shown) [Example 68, 4-(7-(8-Ethyl-8-azabicyclo[3.2.1]octan-3-yl)-2-(pyridin-4-yl)pyrazolo[1,5-a]pyrimidin-3-yl)-2-hydroxybenzonitrile]",0.058 µM
4,"Oc1cc(-c2c(-c3ccncc3)nn3c(C4CC5CCC(C4)N5)ccnc23)ccc1Cl (stereo not shown) [Example 12, 5-(7-(8-Azabicyclo[3.2.1]octan-3-yl)-2-(pyridin-4-yl)pyrazolo[1,5-a]pyrimidin-3-yl)-2-chlorophenol]",0.0004 µM

# Same assay, conditions: Mean IC50 (uM), B-Raf IC50 Data for compounds of Formula A
row,Compound,IC50
1,"CCOC(=O)N1C2CCC1CC(c1ccnc3c(-c4ccc(C(F)(F)F)c5[nH]ncc45)c(-c4ccncc4)nn13)C2 (stereo not shown) [Example 76, Ethyl 3-{2-pyridin-4-yl-3-[7-(trifluoromethyl)-1H-indazol-4-yl]pyrazolo[1,5-a]pyrimidin-7-yl}-8-azabicyclo[3.2.1]octane-8-carboxylate]",0.004 µM
